The text below walks through data of US20240285500A1, “HAIR GROWTH AGENT” (ADJUVANT HOLDINGS CO., LTD., priority 2021, published 2024).

The test system of assay [1] is VEGF gene expression in human dermal papilla cells. Put plainly: Evaluation of human dermal papilla cell VEGF gene expression (real-time PCR). The assay is classed as cell-based. As to conditions: 72 hours. The protocol: Exemplary Test 1: Evaluation of Human Dermal Papilla Cell VEGF Gene Expression
The VEGF gene is expressed in dermal papilla cells, and contributes to expression of such effects as increase in hair shaft diameter and improving maximum hair shaft length and improving hair shaft elongation rate and hair shaft growth promotion at head hair, beard, eyebrows, and/or eyelashes. Human dermal papilla cells were therefore used, and evaluation was carried out with respect to increase in VEGF gene expression for the respective components.
Human dermal papilla cells (Catalog No. CA60205a; derived from person; Toyobo Co., Ltd. (Japan)) were purchased, testing and evaluation being carried out with maintenance and culture of cells being performed as described in the protocol. […]
A 24-well plate was seeded with human dermal papilla cells so as to obtain 6×10^3 thereof per well. […] The GAPDH gene was used as an internal standard, the amount of VEGF gene expression being calculated relative to the negative control group. […]
On the technique in general: In qPCR the cycle at which signal appears reflects the starting amount.

Assay [2] deals with vascular endothelial growth factor (VEGF) expression in human dermal papilla cells. Conditions: cited from earlier work.

With `CCCCCCCCCCCCCC[C@@H](O)[C@@H](O)[C@@H](N)CO` [Working Example 1, phytosphingosine], the “change in amount of expression of the VEGF gene as compared with the control group” value in assay [1] (vs control group at which nothing had been added, GAPDH internal standard, FIG. 1) is recorded as “increase in dosage-dependent fashion in the amount of expression of the VEGF gene”.
Regarding `CCCCCCCCCCCCCC[C@@H](O)[C@@H](O)[C@@H](N)CO` [phytosphingosine], the “amount of expression of the VEGF gene compared with Comparative Example 1” value in assay [1] (increased amount of phytosphingosine vs Comparative Example 1, FIG. 1) is given as “significantly greater”.
On to `Nc1ncnc2c1ncn2[C@@H]1O[C@H](CO)[C@@H](O)[C@H]1O` [adenosine], for which the “expression of vascular endothelial growth factor (VEGF)” value in assay [2] was “promotes expression of vascular endothelial growth factor (VEGF)”.
